Active and inactive are the calls of the source. No cut-off for these calls is given here.
Columns and labels:
[1] = molecular target: T1, Poly [ADP-ribose] polymerase tankyrase-2 (Homo sapiens, UniProt Q9H2K2); assay: Inhibition of PARP5b (unknown origin)
T1 sequence (Q9H2K2 whole entry): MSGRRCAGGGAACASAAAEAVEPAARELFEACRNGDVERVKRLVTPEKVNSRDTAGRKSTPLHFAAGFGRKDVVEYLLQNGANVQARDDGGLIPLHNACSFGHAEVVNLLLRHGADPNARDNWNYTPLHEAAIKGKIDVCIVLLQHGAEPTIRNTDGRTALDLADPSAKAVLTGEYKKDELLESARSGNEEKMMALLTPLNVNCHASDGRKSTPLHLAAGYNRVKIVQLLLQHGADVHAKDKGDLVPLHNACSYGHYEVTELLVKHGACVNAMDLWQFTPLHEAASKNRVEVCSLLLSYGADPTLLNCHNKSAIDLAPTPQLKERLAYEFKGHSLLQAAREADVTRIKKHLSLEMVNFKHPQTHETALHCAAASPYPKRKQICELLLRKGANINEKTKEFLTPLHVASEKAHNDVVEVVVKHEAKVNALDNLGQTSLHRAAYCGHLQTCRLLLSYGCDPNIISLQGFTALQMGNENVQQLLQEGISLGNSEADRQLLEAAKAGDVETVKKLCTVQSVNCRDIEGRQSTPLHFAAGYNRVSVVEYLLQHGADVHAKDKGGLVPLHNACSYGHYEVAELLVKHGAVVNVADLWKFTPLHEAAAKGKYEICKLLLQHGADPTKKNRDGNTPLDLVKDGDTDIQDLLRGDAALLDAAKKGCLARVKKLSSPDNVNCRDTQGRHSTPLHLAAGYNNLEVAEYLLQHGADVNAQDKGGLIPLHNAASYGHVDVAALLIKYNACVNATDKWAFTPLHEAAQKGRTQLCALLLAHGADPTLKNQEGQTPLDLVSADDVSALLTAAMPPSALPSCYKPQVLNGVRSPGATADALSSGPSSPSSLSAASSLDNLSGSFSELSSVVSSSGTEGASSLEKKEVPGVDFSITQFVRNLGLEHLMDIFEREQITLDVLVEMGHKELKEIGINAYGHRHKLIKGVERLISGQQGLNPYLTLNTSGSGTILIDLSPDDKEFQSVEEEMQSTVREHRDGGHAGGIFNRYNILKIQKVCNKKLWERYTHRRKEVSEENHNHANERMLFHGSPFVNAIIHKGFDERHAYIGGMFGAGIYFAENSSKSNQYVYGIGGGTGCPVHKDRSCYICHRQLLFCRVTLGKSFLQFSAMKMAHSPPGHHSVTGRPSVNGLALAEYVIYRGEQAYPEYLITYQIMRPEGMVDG

SW48 = assay: Antiproliferative activity against BRCA2-deficient human SW48 cells assessed as inhibition of cell proliferation incubated for 5 days by MTT assay; assay type: functional, cell-based; conditions: SW48, 120 h, read-out: IC50
MDA-MB-231 [2] = assay: Antitumor activity against human MDA-MB-231 cells xenografted in BALB/c mouse assessed as tumor growth inhibition at 25 mg/kg, ip administered for 21 days; assay type: functional; conditions: MDA-MB-231, 504 h, time 21 day, read-out: TGI
MDA-MB-436 = assay: Antiproliferative activity against BRCA1-deficient human MDA-MB-436 cells assessed as inhibition of cell proliferation incubated for 5 days by MTT assay; assay type: functional, cell-based; conditions: MDA-MB-436, 120 h
[3] = Toxicity in BALB/c mouse xenografted with human MDA-MB-231 cells assessed as liver damage at 20 to 40 mg/kg, ip administered for 21 days by H and E staining based analysis; assay type: organism-based; conditions: in vivo, 504 h, dose 20-40 mg/kg, time 21 day
[4] = molecular target: Poly [ADP-ribose] polymerase 1 (Homo sapiens, UniProt P09874); assay: Inhibition of human PARP1 incubated for 90 mins by colorimetric assay
Sequence of Poly [ADP-ribose] polymerase 1 (P09874 whole entry): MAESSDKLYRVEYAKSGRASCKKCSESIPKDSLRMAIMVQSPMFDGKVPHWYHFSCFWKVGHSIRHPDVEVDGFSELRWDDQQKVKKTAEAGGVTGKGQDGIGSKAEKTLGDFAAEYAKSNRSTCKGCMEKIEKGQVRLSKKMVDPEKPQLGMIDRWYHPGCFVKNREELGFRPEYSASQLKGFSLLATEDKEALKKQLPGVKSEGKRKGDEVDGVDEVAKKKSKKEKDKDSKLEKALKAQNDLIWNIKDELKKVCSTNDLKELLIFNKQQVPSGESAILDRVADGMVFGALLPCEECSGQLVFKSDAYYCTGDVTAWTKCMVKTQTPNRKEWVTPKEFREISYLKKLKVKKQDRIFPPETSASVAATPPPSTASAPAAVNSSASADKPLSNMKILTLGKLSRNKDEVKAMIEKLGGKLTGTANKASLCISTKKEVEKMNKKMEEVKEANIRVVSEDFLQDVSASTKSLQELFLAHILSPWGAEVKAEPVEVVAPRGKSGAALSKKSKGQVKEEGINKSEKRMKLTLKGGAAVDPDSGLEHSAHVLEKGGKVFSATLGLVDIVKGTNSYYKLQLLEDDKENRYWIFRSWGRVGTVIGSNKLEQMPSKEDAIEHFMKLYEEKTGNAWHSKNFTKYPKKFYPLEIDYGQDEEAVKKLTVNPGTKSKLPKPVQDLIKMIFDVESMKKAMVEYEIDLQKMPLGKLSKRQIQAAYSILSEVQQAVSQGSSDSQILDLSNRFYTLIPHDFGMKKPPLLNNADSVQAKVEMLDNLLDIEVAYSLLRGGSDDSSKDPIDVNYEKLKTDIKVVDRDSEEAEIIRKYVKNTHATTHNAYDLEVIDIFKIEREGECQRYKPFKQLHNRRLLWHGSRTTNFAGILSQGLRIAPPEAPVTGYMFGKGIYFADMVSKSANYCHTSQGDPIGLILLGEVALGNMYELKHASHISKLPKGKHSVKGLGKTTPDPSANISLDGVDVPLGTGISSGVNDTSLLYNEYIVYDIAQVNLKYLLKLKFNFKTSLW

[5] = molecular target: T2, Protein mono-ADP-ribosyltransferase PARP3 (Homo sapiens, UniProt Q9Y6F1); assay: Inhibition of PARP3 (unknown origin)
T2 sequence (Q9Y6F1 whole entry): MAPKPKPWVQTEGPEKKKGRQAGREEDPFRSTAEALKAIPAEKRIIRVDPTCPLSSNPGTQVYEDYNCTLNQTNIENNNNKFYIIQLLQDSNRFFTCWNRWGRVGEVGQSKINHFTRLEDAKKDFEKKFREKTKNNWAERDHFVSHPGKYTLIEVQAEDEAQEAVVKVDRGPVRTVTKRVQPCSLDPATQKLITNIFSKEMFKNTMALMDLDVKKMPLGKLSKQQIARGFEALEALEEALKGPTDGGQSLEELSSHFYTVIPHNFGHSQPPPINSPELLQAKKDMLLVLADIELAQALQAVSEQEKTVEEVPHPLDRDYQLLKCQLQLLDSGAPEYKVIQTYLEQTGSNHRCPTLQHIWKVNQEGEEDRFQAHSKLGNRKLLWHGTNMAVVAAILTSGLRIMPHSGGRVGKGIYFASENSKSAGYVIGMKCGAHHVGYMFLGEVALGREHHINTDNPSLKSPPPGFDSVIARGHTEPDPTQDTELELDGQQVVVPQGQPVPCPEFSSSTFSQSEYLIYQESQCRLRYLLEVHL

[6] = Metabolic stability in human liver microsome assessed as half life; assay type: ADME; conditions: liver microsomes
[7] = Metabolic stability in mouse liver microsome assessed as half life; assay type: ADME; conditions: liver microsomes
[8] = Toxicity in BALB/c mouse xenografted with human MDA-MB-231 cells assessed as lung damage at 20 to 40 mg/kg, ip administered for 21 days by H and E staining based analysis; assay type: organism-based; conditions: in vivo, 504 h, dose 20-40 mg/kg, time 21 day
[9] = Toxicity in BALB/c mouse xenografted with human MDA-MB-231 cells assessed as spleen damage at 20 to 40 mg/kg, ip administered for 21 days by H and E staining based analysis; assay type: organism-based; conditions: in vivo, 504 h, dose 20-40 mg/kg, time 21 day
[10] = Cmax in Sprague-Dawley rat at 1 mg/kg, iv by LC-MS/MS analysis; assay type: ADME, organism-based; conditions: in vivo
MCF-10A = assay: Effect on DNA polymerase theta expression in human MCF-10A cells by immunoblotting analysis; assay type: functional, cell-based
MDA-MB-231 [11] = assay: Induction of DNA damage in human MDA-MB-231 cells assessed as increase in gammaH2AX foci at 2 uM incubated for 3 days by DAPI staining based confocal laser scanning microscopic analysis; assay type: functional, cell-based; conditions: time 3.0 day
[12] = molecular target: Poly [ADP-ribose] polymerase 2 (Homo sapiens, UniProt Q9UGN5); assay: Inhibition of PARP2 (unknown origin)
Sequence of Poly [ADP-ribose] polymerase 2 (Q9UGN5 whole entry): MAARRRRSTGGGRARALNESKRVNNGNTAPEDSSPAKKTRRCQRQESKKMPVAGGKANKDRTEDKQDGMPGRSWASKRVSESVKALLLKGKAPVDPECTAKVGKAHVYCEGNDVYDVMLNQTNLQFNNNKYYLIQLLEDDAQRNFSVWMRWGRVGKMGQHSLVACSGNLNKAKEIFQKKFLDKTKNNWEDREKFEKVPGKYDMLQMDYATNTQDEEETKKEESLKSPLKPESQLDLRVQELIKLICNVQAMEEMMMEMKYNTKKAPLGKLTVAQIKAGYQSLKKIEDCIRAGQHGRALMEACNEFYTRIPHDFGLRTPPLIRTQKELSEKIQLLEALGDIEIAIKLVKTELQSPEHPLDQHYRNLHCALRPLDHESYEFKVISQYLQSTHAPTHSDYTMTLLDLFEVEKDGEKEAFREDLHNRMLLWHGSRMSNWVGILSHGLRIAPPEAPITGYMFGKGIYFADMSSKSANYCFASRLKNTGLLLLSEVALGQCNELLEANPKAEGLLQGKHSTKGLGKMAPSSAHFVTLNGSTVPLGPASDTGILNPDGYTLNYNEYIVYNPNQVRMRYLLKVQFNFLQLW

MDA-MB-231 [13] = assay: Antitumor activity against human MDA-MB-231 cells xenografted in BALB/c mouse assessed as tumor growth inhibition at 40 mg/kg, ip administered for 21 days; assay type: functional; conditions: MDA-MB-231, 504 h, time 21 day, read-out: TGI

IC50 [1]: 0.156 µM | IC50 (SW48): 2.9 µM | IC50 (MDA-MB-436): 2.7 µM | IC50 [4]: 0.0054 µM | IC50 [5]: 0.0512 µM | half-life [6]: 2.35 min | half-life [7]: 5.1 min | Cmax [10]: 1950 ng/mL | IC50 [12]: 0.0023 µM
Compound: COc1ccc(Cl)cc1-c1cc(C)ncc1C(=O)Nc1nnc(OCC2CCN(C(=O)c3cc(Cc4n[nH]c(=O)c5ccccc45)ccc3F)CC2)s1
inhibition in vivo at 25 mg/kg (MDA-MB-231 [2]): 54.4% | Activity [3]: Non-Toxic | Activity [8]: Non-Toxic | Activity [9]: Non-Toxic | Activity (MCF-10A): Active | Activity (MDA-MB-231 [11]): Active | inhibition in vivo at 40 mg/kg (MDA-MB-231 [13]): 74.7%
